Values quoted from earlier work as cited in patent US20020064550A1, “Edible candy compositions and methods of using same” (AkPharma, Inc., priority 2000, published 2002).
Where two headings read alike, the source gives them in different places.

Key:
[1] = system: symptoms of bladder irritants; conditions: 200 reported patients; calcium glycerophosphate taken with foods; 79.4% without calcium glycerophosphate
dental caries [2] = conditions: sugar-content diets of animals
dental caries [3] = conditions: human children

In the case of “1,2,3-propanetriol, mono(dihydrogen phosphate) calcium salt (1:1) [calcium glycerophosphate]”, the “over-all symptoms of bladder irritants” value [1] is listed as 14.6%, the dental caries reduction (dental caries [2]) is listed as “confirm dental caries reduction” and the dental caries reduction (dental caries [3]) is listed as “fail to confirm same”.
